Usually viability stands for a read-out of living cells in per cent, often relative to untreated cells. What is called melting point is the temperature, or range, at which the solid turns liquid.

Consider eleven compounds from PMC6274350, “Design, Synthesis, and Cytotoxicity of 5-Fluoro-2-methyl-6-(4-aryl-piperazin-1-yl) Benzoxazoles” (Molecules, 2016).

Series [1] can be described thus: CellTiter-Glo luminescent cell viability (cytotoxicity) assay on hepatocytes. In kind it is cell-based, human. Conditions: human, Liver cells, hepatocytes (HepaRG), 24 h, vs DMSO vehicle. As for the experimental part:
(§1) The cytotoxicity of prepared benzoxazoles (7a–j) and intermediates (6a–j and 9) were measured by applying the CellTiter-Glo® luminescent cell proliferation assay (G755A, Promega, Madison, WI, USA). This method permits the determination of viable cells numbers in the culture based on quantitation of the ATP present, which denotes the presence of metabolically active cells. In vitro cytotoxicity analysis was overall performed following the protocol as described in “Guidance Document on Using in Vitro Data to Estimate in Vivo Starting Doses for Acute Toxicity Based on Recommendations” [18]. Human A-549 cells are human lung cancer epithelial cells, which were chosen as the tumor model, whereas the HepaRG™ cell line is a classic hepatic cell line that retains many characteristics of primary human hepatocytes. HepaRG™ cells are terminally differentiated.
(§2) Human cell cultures: Hepatocytes (HepaRG^TM cells) were obtained from Life Technologies, and were cultivated in William’s E Medium (Gibco, Life Technologies, Waltham, MA, USA) and supplemented with 1x GlutaMAX™ plus 1x HepaRG^TM General Purpose Medium Supplement in 25-cm^2 or 75-cm^2 flasks (TPP, Trasadingen, Switzerland) at 37 °C and 5% CO2. Lung cancer epithelial cells A-549 were propagated in Epilife Medium (Gibco, Life Technologies; MEPICF) and combined with CaCl2 and 1x-growth-supplement containing penicillin and streptomycin (Gibco, Life Technologies). For sub-culturing, cells were split at a ratio of 1:4 to 1:8. For cryopreservation, cells were frozen in 10% DMSO in liquid nitrogen.
(§3) Human cytotoxicity assay: Human hepatocytes or human lung carcinoma cells were seeded into sterile black clear-bottomed polystyrene Corning® CellBind® 96-well plates (Munich, Germany) at a density of 20,000 cells/well after calculating cell numbers from trypsinized samples in a classical Neubauer Improved hemocytometer (VWR, Munich, Germany). The cells were grown for 24 h at 37 °C in a 5% CO2 atmosphere in Epilife medium (keratinocytes) or William′s E medium (hepatocytes). After a 24-h recovery period, media were removed from the wells by aspiration. The cells were then immediately exposed to the respective test compounds or reference antibiotics (prepared in advance in 100 µL of the same media) for 24 h 37 °C with 5% CO2. The concentration tested ranged from 0.1 µM to 500 µM (0.1 µM, 1 µM, 10 µM, 50 µM, 100 µM, 250 µM, and 500 µM) and was formulated as a 100× concentrated stock each, resulting in a final constant DMSO concentration of 1% per 100-µL sample volume. Test series were each performed in triplicate, and additionally included a vehicle reference (DMSO only) plus another internal control for evaluating overall assay performance. Additionally, cells were visually examined under a light microscope for any morphological abnormalities relative to the untreated cells. Subsequently, cell viability, as an indicator of potential cytotoxicity, was measured by applying the CellTiter-Glo® luminescent cell proliferation assay (G755A, Promega, Madison, WI, USA). This method permits the determination of the number of viable cells in culture based on quantitation of the ATP present, which denotes the presence of metabolically active cells. To this end, 100 µL (equal to the volume of culture medium) of the kit-provided CellTiter-Glo® reagent (reconstituted by transferring the thawed CellTiter-Glo® buffer to the lyophilized enzyme and substrate mixture) was directly added to each well with a repetitive dispensing pipette. The contents were then mixed for 2 min at room temperature on an orbital minishaker (IKA® MS3 digital, Staufen, Germany) at 450 rpm to induce efficient cell lysis, and then further incubated for 10 min at room temperature for stabilization of the resultant luminescent signal. […]
Background: Cellular ATP, detected with luciferase, serves as a proxy for viable cell number.

Series [2] deals with A-549 lung carcinoma cells. In words: CellTiter-Glo luminescent cell viability (cytotoxicity) assay on lung cancer cells. In kind it is cell-based, human. The conditions noted are these: for Lung cancer cells killed: A-549; for Lung cancer cells killed / viability at 10 µM: 10 µM; for viability at 0.1 µM / viability at 1 µM / viability at 10 µM / viability at 50 µM / viability at 100 µM: Homo sapiens, A549, Lung cancer cells (A-549), 24 h, vs DMSO vehicle. As for the experimental part:
as §1, §2, §3

On to `O=[N+]([O-])c1cc(F)c(N2CCN(c3ccccc3F)CC2)cc1O` [Compound 6g, 4-Fluoro-5-[4-(2-fluoro-phenyl)-piperazin-1-yl]-2-nitro-phenol], for which the melting point was 180 to 181 °C. Besides, in series [1], the viability at 24 h, 0.1 µM was 110%; the viability at 24 h, 1 µM came to 109%; the viability at 24 h, 10 µM is 112%; the viability at 24 h, 50 µM stood at 87%. Besides, in series [2], the “Lung cancer cells killed” value is reported as ~ 40%, the viability at 0.1 µM came to 96%, the viability at 1 µM was 96% and the viability at 10 µM came to 62%. Besides, in series [2], the viability at 50 µM amounted to 51% and the viability at 100 µM is 42%.
Take `O=[N+]([O-])c1cc(F)c(Cl)cc1O`: the melting point was 82 to 83 °C.
On to `O=[N+]([O-])c1cc(F)c(N2CCN(c3ccc(O)cc3)CC2)cc1O` [Compound 6c, 4-Fluoro-5-[4-(4-hydroxy-phenyl)-piperazin-1-yl]-2-nitro-phenol], for which the melting point fell in the range of 218 to 219 °C. In addition, in series [1], the viability at 24 h, 0.1 µM was found to be 95%; the viability at 24 h, 1 µM was found to be 101%; the viability at 24 h, 10 µM is 110%; the viability at 24 h, 50 µM was 101%. Besides, in series [1], the viability at 24 h, 100 µM is 89%. Besides, in series [2], the viability at 0.1 µM was 104%, the viability at 1 µM came out at 103%, the viability at 10 µM was determined as 102% and the viability at 50 µM turned out to be 94%.
The compound `O=[N+]([O-])c1cc(F)c(N2CCN(c3cccc(O)c3)CC2)cc1O` [Compound 6h, 4-Fluoro-5-[4-(3-hydroxy-phenyl)-piperazin-1-yl]-2-nitro-phenol] registered a melting point of 207 to 208 °C. Moreover, in series [1], the viability at 24 h, 0.1 µM was found to be 117%; the viability at 24 h, 1 µM came out at 109%; the viability at 24 h, 10 µM was 108%; the viability at 24 h, 50 µM is 83%. Moreover, the viability at 24 h, 100 µM in series [1] was determined as 58%. Further, in series [2], the viability at 0.1 µM stood at 106%, the viability at 1 µM amounted to 106%, the viability at 10 µM came out at 105% and the viability at 50 µM came out at 87%.
`COc1ccc(N2CCN(c3cc(O)c([N+](=O)[O-])cc3F)CC2)cc1` [Compound 6e, 4-Fluoro-5-[4-(4-methoxy-phenyl)-piperazin-1-yl]-2-nitro-phenol] displayed a melting point of 202 to 204 °C. Further, in series [1], the viability at 24 h, 0.1 µM amounted to 107%; the viability at 24 h, 1 µM came out at 110%; the viability at 24 h, 10 µM was determined as 104%; the viability at 24 h, 50 µM stood at 74%. The viability at 24 h, 100 µM in series [1] amounted to 79%. Further, in series [2], the viability at 0.1 µM was determined as 101%, the viability at 1 µM was 104%, the viability at 10 µM came out at 96% and the viability at 50 µM is 71%.
`Cc1ccc(N2CCN(c3cc(O)c([N+](=O)[O-])cc3F)CC2)cc1` [Compound 6b, 4-Fluoro-2-nitro-5-(4-p-tolyl-piperazin-1-yl)-phenol] showed a melting point of 178 to 179 °C. In addition, in series [1], the viability at 24 h, 0.1 µM stood at 107%; the viability at 24 h, 1 µM was found to be 123%; the viability at 24 h, 10 µM was found to be 120%; the viability at 24 h, 50 µM amounted to 97%. In addition, in series [1], the viability at 24 h, 100 µM stood at 96%. Besides, in series [2], the viability at 0.1 µM turned out to be 99%, the viability at 1 µM was found to be 100%, the viability at 10 µM was determined as 68% and the viability at 50 µM was found to be 65%.
As for `COc1ccc(N2CCN(c3cc4oc(C)nc4cc3F)CC2)cc1` [Compound 7e, 5-Fluoro-6-[4-(4-methoxy-phenyl)-piperazin-1-yl]-2-methyl-benzooxazole], the melting point fell in the range of 156 to 157 °C. Further, in series [1], the viability at 24 h, 0.1 µM amounted to 107%; the viability at 24 h, 1 µM was 108%; the viability at 24 h, 10 µM turned out to be 91%; the viability at 24 h, 50 µM was 71%. In series [2], the viability at 0.1 µM was found to be 93%, the viability at 1 µM was determined as 92%, the viability at 10 µM was determined as 75% and the viability at 50 µM stood at 74%. Also, the viability at 100 µM in series [2] turned out to be 68%.
Take `O=[N+]([O-])c1cc(F)c(N2CCN(c3ccccc3O)CC2)cc1O` [Compound 6f, 4-Fluoro-5-[4-(2-hydroxy-phenyl)-piperazin-1-yl]-2-nitro-phenol]: the melting point lay in the range of 176 to 178 °C. Also, in series [1], the viability at 24 h, 0.1 µM was determined as 105%; the viability at 24 h, 1 µM amounted to 104%; the viability at 24 h, 10 µM was 110%; the viability at 24 h, 50 µM was 76%. For the same compound, in series [2], the viability at 0.1 µM came to 97%, the viability at 1 µM came out at 100%, the viability at 10 µM amounted to 93% and the viability at 50 µM was 60%. Also, the viability at 100 µM in series [2] amounted to 46%.
`O=[N+]([O-])c1cc(F)c(N2CCN(c3ccccc3)CC2)cc1O` [Compound 6a, 4-Fluoro-2-nitro-5-(4-phenyl-piperazin-1-yl)-phenol] returned a melting point of 197 to 198 °C. Also, in series [1], the viability at 24 h, 0.1 µM came out at 86%; the viability at 24 h, 1 µM came out at 97%; the viability at 24 h, 10 µM is 112%; the viability at 24 h, 50 µM came to 90%. In addition, in series [1], the viability at 24 h, 100 µM was 76%. In addition, in series [2], the “Lung cancer cells killed” value is given as ~ 40%, the viability at 0.1 µM is 97%, the viability at 1 µM came to 104% and the viability at 10 µM turned out to be 64%. In addition, in series [2], the viability at 50 µM is 61% and the viability at 100 µM was 58%.
As to `O=[N+]([O-])c1cc(F)c(N2CCN(c3ccc(Cl)c(Cl)c3)CC2)cc1O` [Compound 6j, 5-[4-(3,4-Dichloro-phenyl)-piperazin-1-yl]-4-fluoro-2-nitro-phenol], the melting point is 211 to 213 °C. Further, in series [1], the viability at 24 h, 0.1 µM was 119%; the viability at 24 h, 1 µM was 115%; the viability at 24 h, 10 µM was found to be 81%; the viability at 24 h, 50 µM was found to be 102%. Besides, the viability at 24 h, 100 µM in series [1] came to 108%. In addition, in series [2], the viability at 0.1 µM stood at 98%, the viability at 1 µM amounted to 94%, the viability at 10 µM came to 65% and the viability at 50 µM is 62%.
`Cc1nc2cc(F)c(N3CCN(c4ccc(O)cc4)CC3)cc2o1` [Compound 7c, 4-[4-(5-Fluoro-2-methyl-benzooxazol-6-yl)-piperazin-1-yl]-phenol] registered a melting point of 188 to 191 °C. In series [1], the viability at 24 h, 0.1 µM was 98%; the viability at 24 h, 1 µM was 107%; the viability at 24 h, 10 µM amounted to 101%; the viability at 24 h, 50 µM stood at 93%. In series [2], the viability at 0.1 µM is 92%, the viability at 1 µM came out at 97%, the viability at 10 µM was found to be 101% and the viability at 50 µM came out at 90%. For the same compound, in series [2], the viability at 100 µM stood at 83%.
